Measured values: patent US10457707B2, “Substituted urea depsipeptide analogs as activators of the CLPP endopeptidase” (priority 2015, dated 2019)
In brackets after ≈: the same amount, converted by molar mass. Read-outs that look alike come from different tables or passages of the source. *1 amine or outer side, *2 acyl side, *3 side chain or, on linkers, in order; H or OH if unused. Where a SMILES comes first, the peptide text is derived from it. Bridges are numbered along the chain shown (N, C = ends). [ ]: non-standard residue; d: D form. The star is where a group is joined. ξ: configuration not given here. Phe(3,5-F2) = N[C@@H](Cc1cc(F)cc(F)c1)C(=O)O; NH(4-OCF3-phenyl) = FC(F)(F)Oc1ccc(N*)cc1; Morpholine(3S-CO) = O=C(O)[C@@H]1COCCN1; Pro(4S-Me) = C[C@@H]1CN[C@H](C(=O)O)C1; Pro(4R-Me) = C[C@H]1CN[C@H](C(=O)O)C1; ξPro(4R-OH) = O=C(O)C1C[C@@H](O)CN1; NMeaThr = CN[C@H](C(=O)O)[C@H](C)O; ξPro(4R-Me) = C[C@H]1CNC(C(=O)O)C1; Hyp = O=C(O)[C@@H]1C[C@@H](O)CN1; NH(4-Et-phenyl) = CCc1ccc(N*)cc1; NMeT = CN[C@H](C(=O)O)[C@@H](C)O; NH(4-Me-phenyl) = Cc1ccc(N*)cc1; aThr = C[C@H](O)[C@H](N)C(=O)O; Pip = O=C(O)[C@@H]1CCCCN1; NMeA = CN[C@@H](C)C(=O)O; X1 = N#Cc1cc(N*)ccc1F; CO = O=C([*:1])[*:2]

How the values were obtained:
Type in all cases: cell-based
[1] = tested on: Streptococcus pneumoniae, R6; experiment: Minimal inhibitory concentration assay; settings: read-out: Minimal Inhibitory Concentrations S. pneumoniae R6
Summary of the method: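 Microbroth dilution with two-fold serial compound dilutions in broth, incubated aerobically overnight at 37° C. MIC taken as the lowest concentration preventing bacterial growth.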

[2] = tested on: Staphylococcus aureus, USA 300 wherein ClpP is inactivated; experiment: Minimal inhibitory concentration assay
Summary of the method: (§1)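 Antibacterial activity was measured by CLSI-standard microdilution in broth, using overnight aerobic incubation at 37 °C. Growth inhibition was scored visually, and MIC taken as the lowest concentration preventing growth.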

[3] = tested on: Staphylococcus aureus, USA 300; experiment: Minimal inhibitory concentration assay; settings: USA300, read-out: Minimal Inhibitory Concentrations S. aureus USA 300
Summary of the method: as §1

[4] = Cytotoxicity assay (CellTiter-Glo cell viability, 72 hours); settings: African green monkey
Summary of the method: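 Vero cells, 5000/well, grown overnight at 37° C, 5% CO2 in DMEM with 10% FBS, then exposed to serial compound dilutions or DMSO for 72 hours. Viability read by CellTiter-Glo luminescence. IC50 from duplicate wells, reported as range over two independent experiments.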

[5] = Vero cells, 72 hours, growth inhibition, read-out: Cytotoxicity IC50

Row | Compound | MIC [1] | Minimal Inhibitory Concentrations S. aureus USA 300 ΔClpP [2] | MIC [3] | IC50 at 72 h [4] | IC50 at 72 h [4, 5]
1 | C[C@@H]1C[C@H]2C(=O)OC[C@H](NC(=O)[C@H](Cc3cc(F)cc(F)c3)NC(=O)Nc3ccc4c(c3)OCO4)C(=O)N3C[C@H](O)C[C@H]3C(=O)N3CCCCC3C(=O)N[C@@H](C)C(=O)N2C1 (stereo partly drawn) [Compound 325, (S)-2-(3-(benzo[d][1,3]dioxol-5-yl)ureido)-3-(3,5-difluorophenyl)-N-((2R,6S,8aR,14aS,16R,20S,23aS)-16-hydroxy-2,6-dimethyl-5,8,14,19,23-pentaoxooctadecahydro-1H,5H,14H,19H-pyrido[2,1-i]dipyrrolo[2,1-c:2′,1′-l][1]oxa[4,7,10,13]tetraazacyclo-hexadecin-20-yl)propanamide] | 0.078 µM (≈ 0.0655 µg/mL) | >20 µM | 2.5 µM (≈ 2.1 µg/mL) | > 100 µM | 
2 | Cc1ccc(NC(=O)N[C@@H](Cc2cc(F)cc(F)c2)C(=O)N[C@@H]2C(=O)N3CCC[C@H]3C(=O)N(C)[C@@H]([C@@H](C)O)C(=O)N[C@@H](C)C(=O)N3C[C@H](C)C[C@H]3C(=O)O[C@H]2C)cc1 [Compound 38, (S)-3-(3,5-difluorophenyl)-N-((2R,6S,9S,11aS,17S,18S,20aS)-9-((R)-1-hydroxyethyl)-2,6,10,18-tetramethyl-5,8,11,16,20-pentaoxohexadecahydro-1H,5H,16H-dipyrrolo[2,1-c:2′,1′-l][1]oxa[4,7,10,13]tetraazacyclohexadecin-17-yl)-2-(3-(p-tolyl)ureido)propanamide] ({NH(4-Me-phenyl)-CO}-[Phe(3,5-F2)][aThr]P[NMeT]A[Pro(4R-Me)]; ester 2-C) | 0.02 µM (≈ 0.0162 µg/mL) | 200 µM | 0.1 µM (≈ 0.0812 µg/mL) |  | 46.1 ± 5.5 µM
3 | CCc1ccc(NC(=O)N[C@@H](Cc2cc(F)cc(F)c2)C(=O)N[C@@H]2C(=O)N3CCC[C@H]3C(=O)N(C)[C@@H]([C@@H](C)O)C(=O)N[C@@H](C)C(=O)N3C[C@H](C)C[C@H]3C(=O)O[C@H]2C)cc1 [Compound 42, (S)-3-(3,5-difluorophenyl)-2-(3-(4-ethylphenyl)ureido)-N-((2R,6S,9S,11aS,17S,18S,20aS)-9-((R)-1-hydroxyethyl)-2,6,10,18-tetramethyl-5,8,11,16,20-pentaoxohexadecahydro-1H,5H,16H-dipyrrolo[2,1-c:2′,1′-l][1]oxa[4,7,10,13]tetraazacyclohexadecin-17-yl)propanamide] ({NH(4-Et-phenyl)-CO}-[Phe(3,5-F2)][aThr]P[NMeT]A[Pro(4R-Me)]; ester 2-C) | 0.01 µM (≈ 0.00826 µg/mL) | 100 µM | 0.1 µM (≈ 0.0826 µg/mL) | 24.9 ± 2.6 µM | 
4 | C[C@@H]1C[C@H]2C(=O)O[C@@H](C)[C@H](NC(=O)[C@H](Cc3cc(F)cc(F)c3)NC(=O)Nc3ccc(F)c(C#N)c3)C(=O)N3C[C@H](O)C[C@H]3C(=O)N3CCOC[C@H]3C(=O)N[C@@H](C)C(=O)N2C1 [Compound 326, (S)-2-(3-(3-cyano-4-fluorophenyl)ureido)-3-(3,5-difluorophenyl)-N-((6aS,8R,12S,13S,15aS,17R,21S,23aS)-8-hydroxy-13,17,21-trimethyl-6,11,15,20,23-pentaoxooctadecahydro-6H,11H,15H-[1,4]oxazino[3,4-i]dipyrrolo[2,1-c:2′,1′-l][1]oxa[4,7,10,13]tetraazacyclo-hexadecin-12-yl)propanamide] ({X1-CO}-[Phe(3,5-F2)][aThr][Hyp][Morpholine(3S-CO)]A[Pro(4R-Me)]; ester 2-C) | 0.625 µM (≈ 0.534 µg/mL) | >20 µM | 20 µM (≈ 17.1 µg/mL) | > 100 µM | 
5 | Cc1ccc(NC(=O)N[C@@H](Cc2cc(F)cc(F)c2)C(=O)N[C@@H]2C(=O)N3CCC[C@H]3C(=O)N3CCOC[C@H]3C(=O)N[C@@H](C)C(=O)N3C[C@H](C)C[C@H]3C(=O)O[C@H]2C)cc1 [Compound 210, (S)-3-(3,5-difluorophenyl)-2-(3-(p-tolyl)ureido)-N-((6aS,12S,13S,15aS,17R,21S,23aS)-13,17,21-trimethyl-6,11,15,20,23-pentaoxooctadecahydro-6H,11H,15H-[1,4]oxazino[3,4-i]dipyrrolo[2,1-c:2′,1′-l][1]oxa[4,7,10,13]tetraazacyclohexadecin-12-yl)propanamide] ({NH(4-Me-phenyl)-CO}-[Phe(3,5-F2)][aThr]P[Morpholine(3S-CO)]A[Pro(4R-Me)]; ester 2-C) | 0.002 µM (≈ 0.00162 µg/mL) | >200 µM | 0.006 µM (≈ 0.00486 µg/mL) |  | 5.82 ± 0.39 µM
6 | Cc1ccc(NC(=O)N[C@@H](Cc2cc(F)cc(F)c2)C(=O)N[C@@H]2C(=O)N3CCC[C@H]3C(=O)N(C)[C@@H]([C@H](C)O)C(=O)N[C@@H](C)C(=O)N3C[C@H](C)C[C@H]3C(=O)O[C@H]2C)cc1 [Compound 208, (S)-3-(3,5-difluorophenyl)-N-((2R,6S,9S,11aS,17S,18S,20aS)-9-((S)-1-hydroxyethyl)-2,6,10,18-tetramethyl-5,8,11,16,20-pentaoxohexadecahydro-1H,5H,16H-dipyrrolo[2,1-c:2′,1′-l][1]oxa[4,7,10,13]tetraazacyclohexadecin-17-yl)-2-(3-(p-tolyl)ureido)propanamide] ({NH(4-Me-phenyl)-CO}-[Phe(3,5-F2)][aThr]P[NMeaThr]A[Pro(4R-Me)]; ester 2-C) | 0.02 µM (≈ 0.0162 µg/mL) | 200 µM | 0.1 µM (≈ 0.0812 µg/mL) |  | 46.1 ± 5.5 µM
7 | C[C@H]1C[C@H]2C(=O)O[C@@H](C)[C@H](NC(=O)[C@H](Cc3cc(F)cc(F)c3)NC(=O)Nc3ccc(OC(F)(F)F)cc3)C(=O)N3CCC[C@H]3C(=O)N(C)[C@@H]([C@@H](C)O)C(=O)N[C@@H](C)C(=O)N2C1 [Compound 36, (S)-3-(3,5-difluorophenyl)-N-((2S,6S,9S,11aS,17S,18S,20aS)-9-((R)-1-hydroxyethyl)-2,6,10,18-tetramethyl-5,8,11,16,20-pentaoxohexadecahydro-1H,5H,16H-dipyrrolo[2,1-c:2′,1′-l][1]oxa[4,7,10,13]tetraazacyclohexadecin-17-yl)-2-(3-(4-(trifluoromethoxy)phenyl)ureido)propanamide] ({NH(4-OCF3-phenyl)-CO}-[Phe(3,5-F2)][aThr]P[NMeT]A[Pro(4S-Me)]; ester 2-C) | 0.024 µM (≈ 0.0212 µg/mL) | 50 µM | 0.1 µM (≈ 0.0882 µg/mL) | 25.4 ± 1.8 µM | 
8 | C[C@@H]1C[C@H]2C(=O)O[C@@H](C)[C@H](NC(=O)[C@H](Cc3cc(F)cc(F)c3)NC(=O)Nc3ccc(F)c(C#N)c3)C(=O)N3CCC[C@H]3C(=O)N3CCCC[C@H]3C(=O)N[C@@H](C)C(=O)N2C1 [Compound 324, (S)-2-(3-(3-cyano-4-fluorophenyl)ureido)-3-(3,5-difluorophenyl)-N-((2R,6S,8aS,14aS,20S,21S,23aS)-2,6,21-trimethyl-5,8,14,19,23-pentaoxooctadecahydro-1H,5H,14H,19H-pyrido[2,1-i]dipyrrolo[2,1-c:2′,1′-l][1]oxa[4,7,10,13]tetraazacyclo-hexadecin-20-yl)propanamide] ({X1-CO}-[Phe(3,5-F2)][aThr]P[Pip]A[Pro(4R-Me)]; ester 2-C) | 0.625 µM (≈ 0.523 µg/mL) | >20 µM | 0.625 µM (≈ 0.523 µg/mL) | 10.2 ± 0.5 µM | 
9 | Cc1ccc(NC(=O)N[C@@H](Cc2cc(F)cc(F)c2)C(=O)N[C@@H]2C(=O)N3C[C@H](O)CC3C(=O)N(C)[C@@H](C)C(=O)N[C@@H](C)C(=O)N3C[C@H](C)CC3C(=O)O[C@H]2C)cc1 (stereo partly drawn) [Compound 31, (S)-3-(3,5-difluorophenyl)-N-((2S,6S,9S,11aS,13R,17S,18S,20aS)-13-hydroxy-2,6,9,10,18-pentamethyl-5,8,11,16,20-pentaoxohexadecahydro-1H,5H,16H-dipyrrolo[2,1-c:2′,1′-l][1]oxa[4,7,10,13]tetraazacyclohexadecin-17-yl)-2-(3-(p-tolyl)ureido)propanamide] ({NH(4-Me-phenyl)-CO}-[Phe(3,5-F2)][aThr][ξPro(4R-OH)][NMeA]A[ξPro(4R-Me)]; ester 2-C) | 0.195 µM (≈ 0.156 µg/mL) | >200 µM | 1.56 µM (≈ 1.24 µg/mL) |  | > 100 µM
10 | CCc1ccc(NC(=O)N[C@@H](Cc2cc(F)cc(F)c2)C(=O)N[C@@H]2C(=O)N3CCC[C@H]3C(=O)N(C)[C@@H]([C@@H](C)O)C(=O)N[C@@H](C)C(=O)N3C[C@@H](C)C[C@H]3C(=O)O[C@H]2C)cc1 [Compound 37, (S)-3-(3,5-difluorophenyl)-2-(3-(4-ethylphenyl)ureido)-N-((2S,6S,9S,11aS,17S,18S,20aS)-9-((R)-1-hydroxyethyl)-2,6,10,18-tetramethyl-5,8,11,16,20-pentaoxohexadecahydro-1H,5H,16H-dipyrrolo[2,1-c:2′,1′-l][1]oxa[4,7,10,13]tetraazacyclohexadecin-17-yl)propanamide] ({NH(4-Et-phenyl)-CO}-[Phe(3,5-F2)][aThr]P[NMeT]A[Pro(4S-Me)]; ester 2-C) | 0.024 µM (≈ 0.0198 µg/mL) | 100 µM | 0.1 µM (≈ 0.0826 µg/mL) | 33.8 ± 1.6 µM | 
